In article PMC6406002, “Comparison of the functional properties of trimeric and monomeric CaiT of Escherichia coli” (Scientific Reports, 2019):
Like-named read-outs stand apart in the source and are kept apart here.

Key:
Assay in all cases: tryptophan fluorescence titration
Assay type in all cases: binding
[1] = biological target: T1, CaiT (Escherichia coli, UniProt P31553)
T1 construct: full-length with C-terminal 6His tag (pET21a), expressed in E. coli JW0039 (delta caiT), Ni-NTA purified; homotrimer (D288A and D288R mostly monomeric); DDM-solubilized or in proteoliposomes
Source text: (§1) tryptophan fluorescence titration on CaiT

[2] = biological target: T2, CaiT (Escherichia coli, UniProt P31553, D288A)
T2 construct: full-length with C-terminal 6His tag (pET21a), expressed in E. coli JW0039 (delta caiT), Ni-NTA purified; homotrimer (D288A and D288R mostly monomeric); DDM-solubilized or in proteoliposomes
Source text: as §1

[3] = biological target: T3, CaiT (Escherichia coli, UniProt P31553, D288R)
T3 construct: full-length with C-terminal 6His tag (pET21a), expressed in E. coli JW0039 (delta caiT), Ni-NTA purified; homotrimer (D288A and D288R mostly monomeric); DDM-solubilized or in proteoliposomes
Source text: as §1

| SMILES | Kd ([1]; read-out: L-carnitine / Kd) [mM] | Kd ([2]; read-out: L-carnitine / Kd) [mM] | Kd ([3]; read-out: L-carnitine / Kd) [mM] | Kd ([1]; read-out: γ-butyrobetaine / Kd) [mM] | Kd ([2]; read-out: γ-butyrobetaine / Kd) [mM] | Kd ([3]; read-out: γ-butyrobetaine / Kd) [mM] |
| --- | --- | --- | --- | --- | --- | --- |
| C[N+](C)(C)C[C@H](O)CC(=O)O [L-carnitine] | 3.3 ± 0.2 | 1.8 ± 0.9 | 1.9 ± 1 |  |  |  |
| C[N+](C)(C)CCCC(=O)[O-] [γ-butyrobetaine] |  |  |  | 3.4 ± 0.1 | 3.3 ± 1.3 | 11.4 ± 4.4 |
